Test results published in BindingDB's records for doi:10.1021/acs.jmedchem.8b01719 (Glaxosmithkline, 2019).

What was measured:
[1] = Inhibition of HCV genotype 1b wild-type NS5B RNA dependent RNA polymerase infected in human HuH7 Lunet replicon cells assessed as reduction in viral replication after 48 hrs by steady-glo luciferase reporter gene assay
[2] = Inhibition of HCV genotype 1a wild-type NS5B RNA dependent RNA polymerase transfected in human HuH7 Lunet replicon cells assessed as reduction in viral replication after 3 days by steady-glo luciferase reporter gene assay
[3] = Inhibition of HCV genotype 1b NS5B RNA dependent RNA polymerase C316N mutant infected in human HuH7 Lunet replicon cells assessed as reduction in viral replication after 48 hrs by steady-glo luciferase reporter gene assay
[4] = Inhibition of HCV genotype 1a NS5B RNA dependent RNA polymerase C316Y mutant transfected in human HuH7 Lunet replicon cells assessed as reduction in viral replication after 3 days by steady-glo luciferase reporter gene assay

Row | Compound | EC50 [1] | EC50 [2] | EC50 [3] | EC50 [4]
1 | CNC(=O)c1c(-c2ccc(F)cc2)oc2cc(-n3nc(C)nc3-c3ccc(B(O)O)c(F)c3)c(C3CC3)cc12 | 13 nM | 6 nM | 400 nM | 630 nM
2 | CNC(=O)c1c(-c2ccc(F)cc2)oc2cc(-n3ccnc3-c3ccc(B(O)O)c(F)c3)c(C3CC3)cc12 | 50 nM | 18 nM | 400 nM | 2000 nM
3 | CNC(=O)c1c(-c2ccc(F)cc2)oc2cc(N(c3ccc(B(O)O)c(C(F)(F)F)c3)S(C)(=O)=O)c(C3CC3)cc12 | 4 nM | 1.1 nM | 7.9 nM | 17 nM
4 | CNC(=O)c1c(-c2ccc(F)cc2)oc2cc(-n3ncnc3-c3ccc(B(O)O)c(F)c3)c(C3CC3)cc12 | 2 nM | 1.1 nM | 6.3 nM | 46 nM
5 | CNC(=O)c1c(-c2ccc(F)cc2)oc2cc(N3C(=O)NCC3c3ccc(B(O)O)cc3)c(C3CC3)cc12 (centres undefined) | 250 nM |  | 3200 nM | 
6 | CNC(=O)c1c(-c2ccc(F)cc2)oc2cc(N(C3CCCc4cc(B(O)O)ccc43)S(C)(=O)=O)c(C3CC3)cc12 (centres undefined) | 100 nM | 28 nM | 250 nM | > 5000 nM
7 | CNC(=O)c1c(-c2ccc(F)cc2)oc2cc(N3C(=O)OC[C@H]3c3ccc(B(O)O)c(F)c3)c(C3CC3)cc12 | 200 nM | 140 nM | 1600 nM | > 5000 nM
8 | CNC(=O)c1c(-c2ccc(F)cc2)oc2cc(N(C(C)c3ccc4c(c3)COB4O)S(C)(=O)=O)c(C3CC3)cc12 (centres undefined) | 25 nM |  | 830 nM | 
9 | CNC(=O)c1c(-c2ccc(F)cc2)oc2cc(N(c3cccc(B(O)O)c3)S(C)(=O)=O)c(C3CC3)cc12 | 6.3 nM | 2.2 nM | 63 nM | 1900 nM
10 | CNC(=O)c1c(-c2ccc(F)cc2)oc2cc(N(Cc3ccc(B(O)O)cc3C(F)(F)F)S(C)(=O)=O)c(C3CC3)cc12 | 5 nM |  | 19 nM | 
11 | CNC(=O)c1c(-c2ccc(F)cc2)oc2cc(N3C(=O)OCCC3c3ccc(B(O)O)cc3)c(C3CC3)cc12 (centres undefined) | 50 nM | 56 nM | 400 nM | 310 nM
12 | CNC(=O)c1c(-c2ccc(F)cc2)oc2cc(-n3nnnc3-c3ccc(B(O)O)c(Cl)c3)c(C3CC3)cc12 | 5 nM | 3.8 nM | 40 nM | 660 nM
13 | CNC(=O)c1c(-c2ccc(F)cc2)oc2cc(N3C(=O)OCC3c3ccc(B(O)O)cc3)c(C3CC3)cc12 (centres undefined) | 16 nM | 8.3 nM | 200 nM | 2000 nM
14 | CNC(=O)c1c(-c2ccc(F)cc2)oc2cc(N(C3CCc4cc(B(O)O)ccc43)S(C)(=O)=O)c(C3CC3)cc12 (centres undefined) | 50 nM | 9.2 nM | 500 nM | 4400 nM
15 | CNC(=O)c1c(-c2ccc(F)cc2)oc2cc(N(c3ccc(B(O)O)c(F)c3)S(C)(=O)=O)c(C3CC3)cc12 | 2 nM | 1 nM | 3.2 nM | 39 nM
16 | CNC(=O)c1c(-c2ccc(F)cc2)oc2cc(N3C(=O)OC[C@@H]3c3ccc(B(O)O)c(F)c3)c(C3CC3)cc12 | 2 nM | 2.6 nM | 5 nM | 24 nM
17 | CNC(=O)c1c(-c2ccc(F)cc2)oc2cc(N3C(=O)CCC3c3ccc(B(O)O)cc3)c(C3CC3)cc12 (centres undefined) | 63 nM |  | 790 nM | 
18 | CNC(=O)c1c(-c2ccc(F)cc2)oc2cc(N(C3CCc4c(B(O)O)cccc43)S(C)(=O)=O)c(C3CC3)cc12 (centres undefined) | 40 nM | 11 nM | 320 nM | 1200 nM
19 | CNC(=O)c1c(-c2ccc(F)cc2)oc2cc(-c3ncoc3-c3ccc(B(O)O)c(F)c3)c(C3CC3)cc12 | 4 nM | 3.4 nM | 6.3 nM | 30 nM
20 | CNC(=O)c1c(-c2ccc(F)cc2)oc2cc(-c3ncnn3-c3ccc(B(O)O)c(F)c3)c(C3CC3)cc12 | 2 nM | 1.2 nM | 4 nM | 24 nM
21 | CNC(=O)c1c(-c2ccc(F)cc2)oc2cc(N3C(=O)OCC3c3cccc(B(O)O)c3)c(C3CC3)cc12 (centres undefined) | 100 nM |  | 1600 nM | 
22 | CNC(=O)c1c(-c2ccc(F)cc2)oc2cc(N(c3ccc(B(O)O)c(Cl)c3)S(C)(=O)=O)c(C3CC3)cc12 | 2.5 nM | 1.2 nM | 4 nM | 11 nM
23 | CNC(=O)c1c(-c2ccc(F)cc2)oc2cc(N3C(=O)OC[C@@H]3c3cccc(F)c3)c(C3CC3)cc12 | 1600 nM | 290 nM | > 5000 nM | > 5000 nM
24 | CNC(=O)c1c(-c2ccc(F)cc2)oc2cc(N(c3ccc(B(O)O)cc3)S(C)(=O)=O)c(C3CC3)cc12 | 2.5 nM | 0.9 nM | 6.3 nM | 290 nM
25 | CNC(=O)c1c(-c2ccc(F)cc2)oc2cc(N(c3cc(Cl)c4c(c3)COB4O)S(C)(=O)=O)c(C3CC3)cc12 | 2.5 nM | 1.3 nM | 2.5 nM | 32 nM
26 | CNC(=O)c1c(-c2ccc(F)cc2)oc2cc(-n3nccc3-c3ccc(B(O)O)c(F)c3)c(C3CC3)cc12 | 4 nM | 2.3 nM | 7.9 nM | 20 nM
